{"source": "patent US9381143B2", "about": "“Use of substituted methoxyalkoxyphenylalkyl derivatives as preservative, preserving method, compounds and composition” (L'OREAL, priority 2010, dated 2016)", "assay_in_all_cases": "Challenge Test (artificial contamination) of cosmetic formula", "assay_type_in_all_cases": "cell-based", "key": {"[1]": {"tested_on": "Pseudomonas aeruginosa (Pa) ATCC 19429", "details": "2% compound in cosmetic formula; inoculum approx. 10^6 CFU/g; 7 days at 22° C. in the dark; <200 CFU = sensitivity threshold", "procedure": "(§1) The antimicrobial efficacy of a compound of formula (I) was evaluated by the Challenge Test or artificial contamination method.\n(§2) The challenge test method consists of an artificial contamination of the sample with microbial strains from collection (bacteria, yeasts and moulds) and of an evaluation of the number of revivable microorganisms seven days after inoculation.\n(§3) 5 pure cultures of microorganisms are used.\n(§4) The gram−bacterial strains (Escherichia coli and Pseudomonas aeruginosa), the gram+bacterial strain (Enterococcus faecalis), the yeast strain (Candida albicans), and the mould strain (Aspergillus niger) are inoculated into subculturing medium, respectively the day before inoculation for the bacteria and the yeast, and 5 days before inoculation for the mould.\n(§5) On the day of inoculation: • a suspension in tryptone salt diluent is prepared respectively for the bacteria and the yeast in such a way as to obtain, on a spectrophotometer, a suspension having an optical density between 35% and 45% of transmitted light at 544 nm; • for the mould, the spores are taken by washing the agar with 6 to 7 ml of harvesting solution and the suspension is recovered in a sterile flask or tube.\n(§6) After having homogenized the microbial suspension, 0.2 ml of inoculum (the suspensions are used pure: between 1×10^8 and 3×10^8 CFU per ml) are placed in each pill bottle and the microbial suspension is completely homogenized in the 20 g of product (=cosmetic formula) using a spatula.\n(§7) The amount of microorganisms present in the product corresponds, after homogenization, to a concentration of 10^6 microorganisms per gram of product, i.e. the inoculation at 1% of an inoculum containing 10^8 microorganisms per ml. After 7 or 14 days of contact time between the microorganisms and the product at 22° C.±2° C. and in the dark, ten-fold dilutions are carried out and the number of revivable microorganisms remaining in the product is counted."}, "[2]": {"tested_on": "Enterococcus faecalis (Ef) ATCC 33186", "details": "2% compound in cosmetic formula, inoculum approx. 10^6 CFU/g", "procedure": "as §1, §2, §3, §4, §5, §6, §7"}, "[3]": {"tested_on": "Escherichia coli (Ec) ATCC 8739", "details": "2% compound in cosmetic formula; inoculum approx. 10^6 CFU/g; 7 days at 22° C. in the dark; <200 CFU = sensitivity threshold", "procedure": "as §1, §2, §3, §4, §5, §6, §7"}, "[4]": {"tested_on": "Candida albicans (Ca) ATCC 10231", "details": "2% compound in cosmetic formula; inoculum approx. 10^6 CFU/g; 7 days at 22° C. in the dark; <200 CFU = sensitivity threshold", "procedure": "as §1, §2, §3, §4, §5, §6, §7"}, "[5]": {"tested_on": "Aspergillus niger (An) ATCC 6275", "details": "2% compound in cosmetic formula, inoculum approx. 10^6 CFU/g", "procedure": "as §1, §2, §3, §4, §5, §6, §7"}}, "data": [{"smiles": "COc1ccc(CCC(C)=O)cc1OC", "values": [{"measurement": "Number of CFU/gram of product at T = 7 days, P. aeruginosa", "setting": "[1]", "value": "<200 CFU/gram of product"}, {"measurement": "Number of CFU/gram of product at T = 7 days, E. faecalis", "setting": "[2]; 7 days at 22° C. in the dark", "value": "7.3 · 10^5 CFU/gram of product"}, {"measurement": "Number of CFU/gram of product at T = 14 days, E. faecalis", "setting": "[2]; 14 days at 22° C. in the dark", "value": "3.3 · 10^8 CFU/gram of product"}, {"measurement": "Number of CFU/gram of product at T = 7 days, E. coli", "setting": "[3]", "value": "<200 CFU/gram of product"}, {"measurement": "Number of CFU/gram of product at T = 7 days, C. albicans", "setting": "[4]", "value": "<200 CFU/gram of product"}, {"measurement": "Number of CFU/gram of product at T = 7 days, A. niger", "setting": "[5]; 7 days at 22° C. in the dark", "value": "1.4 · 10^6 CFU/gram of product"}, {"measurement": "Number of CFU/gram of product at T = 14 days, A. niger", "setting": "[5]; 14 days at 22° C. in the dark", "value": "3.6 · 10^5 CFU/gram of product"}]}]}
